Results as given in patent publication US4564624A, “8-(Substituted N-phenylcarboxamidomethyl) pyrrolizidines and use thereof as antiarrhythmics” (Suntory Ltd., priority 1982, dated 1986).

How the values were obtained:
[1] = test system: ventricular arrhythmias induced by chloroform; assay: Antiarrhythmic activity: prevention of chloroform-induced ventricular flutter and fibrillation in mice; settings: for ED50 / ED40 / ED20: Mus musculus, sc, 0.5 h; for ED50: read-out: ED50 (95% confidence limit); for Therapeutic index: ratio of LD50 and ED50
Method: At the time when they ceased to breathe, electrocardiogram of each animal was recorded to observe the flutter and fibrillation of the ventricle.
The abnormalities of ventriculus as observed in these animals can be prevented by previous administration of a substance showing antiarrhythmic activity. A compound of this invention, at various dosages, was subcutaneously injected to mice grouped by 29-40 heads. Thirty minutes later these mice were treated with chloroform to induce arrhythmias. Prophylaxis percentages of the flutter and fibrillation of ventricle for each dosage were calculated.

[2] = test system: ddY strain male mice; assay: in vivo; settings: mouse
[3] = in vivo; settings: mouse

| SMILES | ED50 [1] [mg/kg] | LD50 [2] [mg/kg] | Therapeutic index [1] | LD50 [3] [mg/kg] | ED40 [1] [mg/kg] | ED20 [1] [mg/kg] |
| --- | --- | --- | --- | --- | --- | --- |
| Cc1cccc(C)c1NC(=O)CC12CCCN1CCC2 [Compound 12, N-(2,6-dimethylphenyl)-8-pyrrolizidineacetaminde] | 24 |  |  |  |  |  |
| Cc1ccc(NC(=O)CC23CCCN2CCC3)cc1C [Compound 13, N-(3,4-dimethylphenyl)-8-pyrrolizidineacetamide] | 76 | 559 | 7.36 |  |  |  |
| Cc1cccc(NC(=O)CC23CCCN2CCC3)c1C [Compound 9, N-(2,3-dimetylphenyl)-8-pyrrolizidineacetamide] | 64 | 469 | 7.33 |  |  |  |
| COc1ccc(OC)c(NC(=O)CC23CCCN2CCC3)c1 [Compound 15, N-(2,5-dimethoxyphenyl)-8-pyrrolizidineacetamide] | 90 | 203 | 2.26 |  |  |  |
| Cc1ccc(C)c(NC(=O)CC23CCCN2CCC3)c1 [Compound 11, N-(2,5-dimethylphenyl)-8-pyrrolizidineacetamide] | 72 | 400 | 5.56 |  |  |  |
| Cc1cc(C)cc(NC(=O)CC23CCCN2CCC3)c1 [Compound 14, N-(3,5-dimethylphenyl)-8-pyrrolizidineacetamide] | 52 | 355 | 6.83 |  |  |  |
| CCc1cccc(CC)c1NC(=O)CC12CCCN1CCC2 [Compound 17, N-(2,6-diethylphenyl)-8-pyrrolizidineacetamide] | 28 | 278 | 9.93 |  |  |  |
| Cc1ccc(NC(=O)CC23CCCN2CCC3)c(C)c1 [Compound 10, N-(2,4-dimethylphenyl)-8-pyrrolizidineacetamide] | > 100 |  |  | 398 | 100 |  |
| O=C(CC12CCCN1CCC2)Nc1ccccc1Br [Compound 4, N-(2-bromophenyl)-8-pyrrolizidineacetamide] | 59 | 445 | 7.54 |  |  |  |
| COc1ccc(NC(=O)CC23CCCN2CCC3)cc1 [Compound 7, N-(4-methoxyphenyl)-8-pyrrolizidineacetamide] | 60 | 288 | 4.80 |  |  |  |
| Cc1ccccc1NC(=O)CC12CCCN1CCC2 [Compound 1, N-(2-methylphenyl)-8-pyrrolizidineacetamide] | > 100 | 385 |  |  | 100 |  |
| COc1ccccc1NC(=O)CC12CCCN1CCC2 [Compound 5, N-(2-methoxyphynyl)-8-pyrrolizidineacetamide] | > 100 | 381 |  |  | 100 |  |
| O=C(CC12CCCN1CCC2)Nc1c(Cl)cccc1Cl [Compound 16, N-(2,6-dichlorophenyl)-8-pyrrolizidineacetamide] | > 100 | 200 |  |  |  | 100 |
| Nc1ccccc1NC(=O)CC12CCCN1CCC2 [Compound 8, N-(2-aminophenyl)-8-pyrrolizidineacetamide] | 100 | 633 | 6.33 |  |  |  |
| O=C(CC12CCCN1CCC2)Nc1ccccc1Cl [Compound 3, N-(2-chlorophenyl)-8-pyrrolizidineacetamide] | > 100 | 347 |  |  |  | 100 |
| Cc1cc(C)c(NC(=O)CC23CCCN2CCC3)c(C)c1 [Compound 18, N-(2,4,6-trimethylphenyl)-8-pyrrolizidineacetamide] | 34 | 309 | 9.09 |  |  |  |
| Cc1ccc(NC(=O)CC23CCCN2CCC3)cc1 [Compound 2, N-(4-methylphenyl)-8-pyrrolizidineacetamide] |  | 413 |  |  |  | 100 |
| COc1cccc(NC(=O)CC23CCCN2CCC3)c1 [Compound 6, N-(3-methoxyphenyl)-8-pyrrolizidineacetamide] | > 100 | 417 |  |  | 100 |  |
